Assay results from US10183032B2, “Methods for treating bacterial infection” (Ball State Innovation Corporation, priority 2012, dated 2019).

Experiments:
[1] = tested on: Human umbilical vein endothelial cells; experiment: Cytotoxicity by propidium iodide exclusion, HUVEC; type: cell-based
Staphylococcus aureus = experiment: S. aureus invasion of serum-starved RAW 264.7 cells, CFU recovery; type: cell-based; details: treatment 1 hour, serum-starved conditions, 10 μM
Experimental: FIG. 5 is a graph illustrating ML 141 inhibiting invasion with shorter duration exposure under serum starved conditions. RAW 264.7 cells were serum-starved overnight then pretreated for 1 hour with the vehicle control dimethyl sulfoxide (DMSO) or with ML 141 (10 μM). Following infection with Staphylococcus aureus (1 hour), extracellular bacteria were eliminated using the antimicrobials gentamicin and lysostaphin (45 minutes), and intracellular bacteria recovered by permeabilizing the host cells. Serial dilutions of the recovered intracellular bacteria were incubated on tryptic soy agar, colonies enumerated, and colony forming units (CFU)/ml calculated (*less than vehicle control; p≤0.05 by Student's t-test; n=3/treatment). […]
Two days prior to the assay, TSB is inoculated with S. aureus (American Type Culture Collection #29213) and incubated overnight (225 rpm, 37° C.). […] To detect the level of infection using flow cytometry, cells that have been infected with fluorescently-labeled bacteria are washed extensively with PBS, lifted from 96-well plate by incubation with trypsin, washed extensively in FACS buffer (2% BSA/0.1% sodium azide/PBS), fixed (FACS buffer containing 0.74% formaldehyde), and are counted using an Accuri flow cytometer (BD, Franklin Lakes, N.J.). […]

fibronectin = experiment: Fibronectin adhesion assay, HUVEC; type: cell-based, human; details: ML 141 10 μM, 18-20 h; re-plated 2 h; vehicle 24±4%
Experimental: FIG. 10C is a graph illustrating that ML 141 decreases cell adhesion to fibronectin-coated surface. HUVEC were pretreated as in FIGS. 10A and 10B, lifted from culture dishes using cell scrapers, and re-plated (2 h) onto non-tissue culture treated plates coated with fibronectin and blocked with bovine serum albumin. Following extensive washes, cells were recovered using trypsin and counted using an Accuri C6 flow cytometer (*p<0.05 by t-test on log-transformed data pooled from 2 independent experiments, n=8/treatment).
HUVEC were plated and pretreated as described for the invasion assay. 96-well, non-tissue culture treated plates (Sarstedt, Newton, N.C.) were coated with fibronectin (20 μg/ml; 2 h; 37° C.), washed with PBS, and blocked with bovine serum albumin (2%, 30 min, RT). HUVEC were lifted from the 35 mm dishes using cell scrapers, 100 μl counted for normalization using the Accuri C6, and 200 μl transferred to the 96-well plate (2 h, 5% CO2, 37° C.). After extensive washes in PBS, cells were removed from the plate using trypsin, washed in FACS buffer, fixed, and 100 μl counted. These cell counts were normalized to those that had been taken prior to plating on the fibronectin-coated plate.

## COc1ccc(C2CC(c3ccccc3)=NN2c2ccc(S(N)(=O)=O)cc2)cc1 (stereo not shown) [ML 141, 4-[3-(4-methoxyphenyl)-5-phenyl-3,4-dihydropyrazol-2-yl]benzenesulfonamide]
[1]; 10 μM, 18-20 h, Tables 4 and 5
  Cytotoxicity (in words): not detected
[1]; HUVEC pretreated 18-20 h
  Mean fluorescence intensity (×10^4 ± SEM), Compound (10 μM): 2.1 ± 0.3 ×10^4
Staphylococcus aureus
  inhibition of invasion, shorter exposure: Inhibition is detectable
fibronectin
  adherence of HUVEC to fibronectin-coated plates: 14±2%
